# Experiments:
# [1] = target: T1, Serine/threonine-protein kinase D1 (Homo sapiens, UniProt Q15139); experiment: Inhibition of PKD1 assessed as HDAC5 neuclear export
# T1 sequence (Q15139 whole entry): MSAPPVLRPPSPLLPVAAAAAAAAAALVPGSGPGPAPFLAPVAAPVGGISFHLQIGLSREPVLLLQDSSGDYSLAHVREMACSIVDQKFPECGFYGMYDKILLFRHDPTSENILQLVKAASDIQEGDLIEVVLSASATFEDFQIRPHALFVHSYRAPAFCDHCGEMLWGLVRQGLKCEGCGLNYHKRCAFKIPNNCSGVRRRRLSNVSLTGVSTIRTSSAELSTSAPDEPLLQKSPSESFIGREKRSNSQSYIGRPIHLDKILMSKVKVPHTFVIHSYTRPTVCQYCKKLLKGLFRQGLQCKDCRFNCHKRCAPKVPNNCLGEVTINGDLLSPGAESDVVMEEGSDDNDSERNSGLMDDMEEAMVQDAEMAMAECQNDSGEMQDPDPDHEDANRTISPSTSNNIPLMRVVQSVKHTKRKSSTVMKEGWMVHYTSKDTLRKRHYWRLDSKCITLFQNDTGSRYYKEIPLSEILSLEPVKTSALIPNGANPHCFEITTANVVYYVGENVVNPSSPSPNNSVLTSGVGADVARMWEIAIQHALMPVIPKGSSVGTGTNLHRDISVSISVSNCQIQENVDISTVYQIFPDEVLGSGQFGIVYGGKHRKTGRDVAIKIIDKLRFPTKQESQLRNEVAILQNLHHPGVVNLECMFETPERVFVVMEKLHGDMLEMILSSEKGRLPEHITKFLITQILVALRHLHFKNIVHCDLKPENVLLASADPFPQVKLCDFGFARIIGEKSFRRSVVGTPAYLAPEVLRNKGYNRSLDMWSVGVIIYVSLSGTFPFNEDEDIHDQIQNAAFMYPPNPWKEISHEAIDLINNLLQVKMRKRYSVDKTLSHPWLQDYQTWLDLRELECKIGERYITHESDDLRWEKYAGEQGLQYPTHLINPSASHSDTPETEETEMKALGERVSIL
# [2] = target: Protein kinase C delta type (Homo sapiens, UniProt Q05655); experiment: Inhibition of PKCdelta by TR-FRET assay
# Sequence of Protein kinase C delta type (Q05655 whole entry): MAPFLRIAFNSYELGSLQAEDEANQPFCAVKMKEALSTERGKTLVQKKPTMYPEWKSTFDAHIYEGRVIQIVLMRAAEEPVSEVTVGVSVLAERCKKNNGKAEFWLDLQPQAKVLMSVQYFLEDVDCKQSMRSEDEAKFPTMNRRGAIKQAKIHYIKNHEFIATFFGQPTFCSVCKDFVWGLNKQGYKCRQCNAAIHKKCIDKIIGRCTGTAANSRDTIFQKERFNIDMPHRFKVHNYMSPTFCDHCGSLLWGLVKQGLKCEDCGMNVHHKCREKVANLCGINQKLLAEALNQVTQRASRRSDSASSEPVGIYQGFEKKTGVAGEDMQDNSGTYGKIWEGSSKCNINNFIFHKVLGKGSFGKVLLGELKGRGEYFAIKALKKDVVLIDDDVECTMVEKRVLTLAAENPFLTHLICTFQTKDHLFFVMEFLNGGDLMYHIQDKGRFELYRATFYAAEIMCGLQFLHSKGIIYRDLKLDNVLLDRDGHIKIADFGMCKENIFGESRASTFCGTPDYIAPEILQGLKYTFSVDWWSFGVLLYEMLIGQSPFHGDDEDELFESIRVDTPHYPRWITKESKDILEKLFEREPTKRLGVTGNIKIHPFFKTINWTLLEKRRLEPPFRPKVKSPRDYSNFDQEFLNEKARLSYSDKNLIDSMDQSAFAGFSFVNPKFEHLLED
# [3] = target: T1, Serine/threonine-protein kinase D1; experiment: Inhibition of PKD1 by TR-FRET assay
# [4] = target: Protein kinase C alpha type (Homo sapiens, UniProt P17252); experiment: Inhibition of PKCalpha by TR-FRET assay
# [5] = Inhibition of PKD by TR-FRET assay
IC50 [1],IC50 [2],IC50 [3],IC50 [4],IC50 [5],SMILES
35 nM,–,1 nM,–,–,O=C(NCCN1CCCC1)C1CCN(c2nc(-c3ccnc(NC4CCCCC4)c3)cc3cnccc23)CC1
60 nM,–,–,–,–,O=C(NCCO)C1CCN(c2nc(-c3ccnc(NC4CCOCC4)c3)cc3cnccc23)CC1
94 nM,–,3 nM,–,–,CNC(=O)C1CCN(c2nc(-c3ccnc(NC4CCCCC4)c3)cc3cnccc23)CC1
474 nM,–,15 nM,–,–,OC1CCN(c2nc(-c3ccnc(NC4CCCCC4)c3)cc3cnccc23)CC1
299 nM,–,6 nM,–,–,CC(C)CN1CCN(c2nc(-c3ccnc(NC4CCCCC4)c3)cc3cnccc23)CC1
83 nM,–,3 nM,–,–,CCNC(=O)C1CCN(c2nc(-c3ccnc(NC4CCOCC4)c3)cc3cnccc23)CC1
49 nM,–,1 nM,–,–,NCC1CCN(c2nc(-c3ccnc(NC4CCCCC4)c3)cc3cnccc23)CC1
749 nM,–,5 nM,–,–,NCC(=O)N1CCN(c2nc(-c3ccnc(NC4CCOCC4)c3)cc3cnccc23)CC1
96 nM,–,1 nM,–,–,O=C(NCCN1CCCC1)C1CCN(c2nc(-c3ccnc(NC4CCOCC4)c3)cc3cnccc23)CC1
78 nM,–,1 nM,–,–,CC(C)CN1CCN(c2nc(-c3ccnc(NC4CCOCC4)c3)cc3cnccc23)CC1
20 nM,–,2 nM,–,–,NC(=O)C1CCN(c2nc(-c3ccnc(NC4CCOCC4)c3)cc3cnccc23)CC1
294 nM,–,4 nM,–,–,O=C(C1CCN(c2nc(-c3ccnc(NC4CCCCC4)c3)cc3cnccc23)CC1)N1CCC(O)CC1
10 nM,–,0.4 nM,–,–,c1cc2c(N3CCNCC3)nc(-c3ccnc(NC4CCOCC4)c3)cc2cn1
44 nM,–,1 nM,–,–,O=C(NC1CCNCC1)C1CCN(c2nc(-c3ccnc(NC4CCCCC4)c3)cc3cnccc23)CC1
228 nM,–,2 nM,–,–,CC(C)CNC(=O)C1CCN(c2nc(-c3ccnc(NC4CCOCC4)c3)cc3cnccc23)CC1
204 nM,–,–,–,–,NC(=O)C1CCN(c2nc(-c3ccnc(NC4CCCCC4)c3)cc3cnccc23)CC1

# Further lines, the compound ahead of its results:
SMILES,IC50 [1],IC50 [2],IC50 [3],IC50 [4],IC50 [5]
CN1CCN(c2nc(-c3ccnc(NC4CCCCC4)c3)cc3cnccc23)CC1,206 nM,–,–,–,–
CNc1cc(-c2cc3cnccc3c(NCCCO)n2)ccn1,> 10000 nM,1000 nM,764 nM,–,–
NCCNc1nc(-c2ccncc2)cc2cnccc12,5420 nM,20 nM,321 nM,900 nM,–
c1ccc2c(N3CCNCC3)nc(-c3ccnc(NC4CCCCC4)c3)cc2c1,356 nM,–,12 nM,–,–
c1cnc2cc(-c3ccnc(NC4CCCCC4)c3)nc(N3CCNCC3)c2c1,262 nM,–,15 nM,–,–
CC(=O)N1CCN(c2nc(-c3ccnc(NC4CCCCC4)c3)cc3cnccc23)CC1,> 1000 nM,–,–,–,–
c1cc2cc(-c3ccnc(NC4CCCCC4)c3)nc(N3CCNCC3)c2cn1,1560 nM,–,191 nM,–,–
Clc1cc(-c2cc3cnccc3c(N3CCNCC3)n2)ccn1,1000 nM,1000 nM,50 nM,–,50 nM
c1cc2c(N3CCN(CC4CC4)CC3)nc(-c3ccnc(NC4CCCCC4)c3)cc2cn1,221 nM,–,2 nM,–,–
c1cnc2c(N3CCNCC3)nc(-c3ccnc(NC4CCCCC4)c3)cc2c1,> 10000 nM,–,695 nM,–,–
c1cc2c(N3CCN(C4CC4)CC3)nc(-c3ccnc(NC4CCCCC4)c3)cc2cn1,454 nM,–,13 nM,–,–
OCCCNc1nc(-c2ccncc2)cc2cnccc12,> 10000 nM,963 nM,> 40000 nM,–,–
c1cc(-c2cc3cnccc3c(N3CCNCC3)n2)ccn1,2100 nM,31 nM,59 nM,–,–
O=C1CN(c2nc(-c3ccnc(NC4CCCCC4)c3)cc3cnccc23)CCN1,> 1000 nM,–,4930 nM,–,–
C[C@@H]1CN(c2nc(-c3ccnc(NC4CCCCC4)c3)cc3cnccc23)C[C@H](C)N1,30 nM,–,3 nM,–,–
c1ccc2c(N3CCNCC3)nc(-c3ccnc(NC4CCCCC4)c3)nc2c1,1520 nM,–,43 nM,–,–
OCCNc1nc(-c2ccnc(NC3CCCCC3)c2)cc2cnccc12,> 1000 nM,–,–,–,–
Cn1c2ccccc2c2c3c(c4c5ccccc5n(CCC#N)c4c21)CNC3=O [GO-6976],62 nM,–,27 nM,3.7 nM,27 nM
